Calls of active or inactive are those of the source. The calls are words filed in the database; no cut-off is given here.
Assays:
[1] = target: T1, Receptor tyrosine-protein kinase erbB-3 (Homo sapiens, UniProt P21860); experiment: Induction of hydrophobic tag-mediated HER3 degradation in human SK-BR-3 cells assessed as decrease in HER3 level upto 2000 nM incubated for 8 hrs by immunoblot analysis; format: cell-based
[2] = target: T1, Receptor tyrosine-protein kinase erbB-3; experiment: Induction of hydrophobic tag-mediated HER3 degradation in human A549 cells upto 2000 nM incubated for 8 hrs by immunoblot analysis; format: cell-based
[3] = target: T1, Receptor tyrosine-protein kinase erbB-3; experiment: Induction of hydrophobic tag-mediated HER3 degradation in human MDA-MB-453 cells upto 2000 nM incubated for 8 hrs by immunoblot analysis; format: cell-based
SK-BR-3 [4] = experiment: Antiproliferative activity against human SK-BR-3 cells incubated for 72 hrs by CCK8 assay; format: functional, cell-based; conditions: SK-BR-3, 72 h
SK-BR-3 [5] = experiment: Inhibition of cell adhesion in human SK-BR-3 cells upto 2000 nM incubated for 8 hrs by crystal violet staining based analysis; format: functional
[6] = target: T1, Receptor tyrosine-protein kinase erbB-3; experiment: Induction of hydrophobic tag-mediated HER3 degradation in human SK-BR-3 cells at 1 uM incubated for 8 hrs in presence of chloroquine by immunoblot analysis; format: cell-based
[7] = target: T1, Receptor tyrosine-protein kinase erbB-3; experiment: Induction of Hsp90 binding to HER3 in human SK-BR-3 cells at 1 uM incubated for 8 hrs by Co-IP method; format: cell-based
SK-BR-3 [8] = experiment: Induction of autophagy in human SK-BR-3 cells assessed as increase in LC3B-II level upto 2 uM incubated for 8 hrs by Western blot analysis; format: functional, cell-based
[9] = target: T1, Receptor tyrosine-protein kinase erbB-3; experiment: Induction of hydrophobic tag-mediated HER3 degradation in human SK-BR-3 cells assessed as decrease in p-AKT level upto 2000 nM incubated for 8 hrs by immunoblot analysis; format: cell-based
[10] = target: T1, Receptor tyrosine-protein kinase erbB-3; experiment: Induction of hydrophobic tag-mediated HER3 degradation in human SK-BR-3 cells at 1000 nM by immunoblot analysis; format: cell-based; conditions: time <= 24.0 hrs
[11] = target: T1, Receptor tyrosine-protein kinase erbB-3; experiment: Induction of hydrophobic tag-mediated HER3 degradation in human SK-BR-3 cells incubated for 8 hrs by immunoblot analysis; format: cell-based
[12] = target: T1, Receptor tyrosine-protein kinase erbB-3; experiment: Induction of HER3 ubiquitination in human SK-BR-3 cells at 1 uM incubated for 8 hrs by Co-IP method; format: cell-based
[13] = target: T1, Receptor tyrosine-protein kinase erbB-3; experiment: Induction of hydrophobic tag-mediated HER3 degradation in human SK-BR-3 cells at 1 uM incubated for 8 hrs in presence of MG132 by immunoblot analysis; format: cell-based

T1 sequence (P21860 whole entry): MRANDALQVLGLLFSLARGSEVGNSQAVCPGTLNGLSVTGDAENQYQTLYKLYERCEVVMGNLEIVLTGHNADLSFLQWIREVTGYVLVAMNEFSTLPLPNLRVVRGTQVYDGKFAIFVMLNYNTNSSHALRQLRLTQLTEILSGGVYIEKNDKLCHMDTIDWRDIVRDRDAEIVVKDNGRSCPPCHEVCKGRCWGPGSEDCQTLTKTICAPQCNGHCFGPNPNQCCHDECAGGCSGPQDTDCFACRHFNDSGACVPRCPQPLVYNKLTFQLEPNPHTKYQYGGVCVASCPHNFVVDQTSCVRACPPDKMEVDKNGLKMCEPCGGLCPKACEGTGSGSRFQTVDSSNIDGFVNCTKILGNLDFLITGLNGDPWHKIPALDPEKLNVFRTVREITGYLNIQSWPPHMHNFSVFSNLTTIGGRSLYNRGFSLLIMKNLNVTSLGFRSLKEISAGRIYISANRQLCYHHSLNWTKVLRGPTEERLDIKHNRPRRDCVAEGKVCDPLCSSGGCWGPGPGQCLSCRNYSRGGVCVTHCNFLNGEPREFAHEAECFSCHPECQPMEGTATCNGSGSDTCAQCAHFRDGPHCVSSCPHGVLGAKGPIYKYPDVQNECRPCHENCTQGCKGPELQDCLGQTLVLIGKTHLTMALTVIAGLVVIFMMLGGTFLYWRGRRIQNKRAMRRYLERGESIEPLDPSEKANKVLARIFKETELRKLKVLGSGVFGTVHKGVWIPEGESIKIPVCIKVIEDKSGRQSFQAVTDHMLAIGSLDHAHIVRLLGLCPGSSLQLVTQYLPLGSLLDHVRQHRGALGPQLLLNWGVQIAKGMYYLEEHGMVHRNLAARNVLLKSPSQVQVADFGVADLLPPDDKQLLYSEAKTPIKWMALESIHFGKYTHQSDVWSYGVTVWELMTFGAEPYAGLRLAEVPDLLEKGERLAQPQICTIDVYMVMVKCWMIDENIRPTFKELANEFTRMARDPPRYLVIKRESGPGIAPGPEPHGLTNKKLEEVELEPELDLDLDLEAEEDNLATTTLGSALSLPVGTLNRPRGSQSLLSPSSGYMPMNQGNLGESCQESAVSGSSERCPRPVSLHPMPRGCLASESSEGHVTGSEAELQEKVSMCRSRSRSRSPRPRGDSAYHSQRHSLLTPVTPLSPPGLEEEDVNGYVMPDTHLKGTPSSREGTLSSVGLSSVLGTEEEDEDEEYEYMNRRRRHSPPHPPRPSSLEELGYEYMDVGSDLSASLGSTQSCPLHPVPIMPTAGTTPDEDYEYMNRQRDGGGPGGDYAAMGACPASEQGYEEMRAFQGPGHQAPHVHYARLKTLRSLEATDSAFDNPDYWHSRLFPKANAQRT

| Activity [2] | Activity [3] | IC50 (SK-BR-3 [4]) | Activity [6] | Activity [7] | Activity [10] | DC50 [11] | Activity ([11]; dose <= 2000.0 nM) | Activity [12] | Activity [13] | SMILES | Activity [1] | inhibition (SK-BR-3 [5]) | Activity (SK-BR-3 [8]) | Activity [9] |
| --- | --- | --- | --- | --- | --- | --- | --- | --- | --- | --- | --- | --- | --- | --- |
| Active | Active | 530 nM | inactive | Active | Time-dependent-effect | 559 nM | Dose-dependent-effect | Active | Active | COc1cc(Nc2c(C#N)cnc3cc(OCCCN4CCC5(CC4)CCN(CCC46C[C@H]7C[C@@H](C4)C[C@@H](C6)C7)CC5)c(OC)cc23)c(Cl)cc1Cl | Active; Exhibited As More Potent Than Bosutinib | Active | Active | Active; Exhibited As More Potent Than Bosutinib |
|  |  | 5140 nM |  |  |  |  |  |  |  | COc1cc(Nc2c(C#N)cnc3cc(OCCCN4CCN(C)CC4)c(OC)cc23)c(Cl)cc1Cl [BOSUTINIB] |  |  |  |  |
